Reference: patent US10975068B2, “6-aminopyridin-3-yl thiazoles as modulators of RORγT” (Janssen Pharmaceutica NV, priority 2016, dated 2021)
Read-outs that look alike come from different tables or passages of the source.

What was measured:
[1] = biological target: human RORγt ligand binding domain (RORγt LBD) (Homo sapiens (Human), UniProt P51449); assay: RORγt ThermoFluor® assay (thermal shift binding)
In short: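 His-tagged human RORγt LBD (0.065 mg/mL) with 60 μM 1,8-ANS in 100 mM Hepes pH 7.0, 10 mM NaCl, 2.5 mM GSH, 0.002% Tween-20 was heated at 1 °C/min.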

full-length human RORγt = full-length human RORγt (Homo sapiens (Human), UniProt P51449); assay: RORγt (full-length human) reporter assay, Conditions B or C; type: cell-based; details: for RORγt (FL) Reporter Assay B or C, % inhibition (value marked *): marked *: footnote not given; for inhibition at 3 µM: at 3 μM compound concentration
In short: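 HEK293T cells transiently co-transfected with GAL4-DBD–full-length human RORγt (nt 142-1635, NM_001001523.1) plus GAL4-firefly and CMV-Renilla luciferase reporters; compounds added 4-6 h post-transfection for 16-20 h in 1.3% FBS, 0.1% DMSO. Firefly signal normalized to DMSO and saturating reference compound, then to Renilla; IC50 from concentration plots.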

[2] = read-out: ThermoFluor® Assay, Kd
[3] = Conditions B or C, read-out: RORγt (FL) Reporter Assay B or C, IC50
[4] = read-out: RORγt (FL) Reporter Assay B or C, IC50
[5] = read-out: RORγt (FL) Reporter Assay B or C, % inhibition
[6] = RORγt (FL) Reporter Assay B or C, IC50 (μM), Conditions B or C

Chain of full-length human RORγt (P51449 other isoform, or with tags, fused parts or gaps): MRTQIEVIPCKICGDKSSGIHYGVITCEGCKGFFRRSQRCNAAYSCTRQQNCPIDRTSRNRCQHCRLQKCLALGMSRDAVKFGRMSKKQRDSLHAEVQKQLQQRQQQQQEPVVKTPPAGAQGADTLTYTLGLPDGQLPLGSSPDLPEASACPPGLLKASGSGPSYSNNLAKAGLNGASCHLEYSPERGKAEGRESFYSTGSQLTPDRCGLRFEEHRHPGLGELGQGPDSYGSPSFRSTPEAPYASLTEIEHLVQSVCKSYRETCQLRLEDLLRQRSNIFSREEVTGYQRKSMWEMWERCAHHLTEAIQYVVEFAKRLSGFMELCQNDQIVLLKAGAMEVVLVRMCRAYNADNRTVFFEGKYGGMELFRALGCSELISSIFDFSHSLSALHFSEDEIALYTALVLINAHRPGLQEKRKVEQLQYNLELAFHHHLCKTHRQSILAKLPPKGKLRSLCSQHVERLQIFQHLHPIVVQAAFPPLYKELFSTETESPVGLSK
Chain of human RORγt ligand binding domain (RORγt LBD) (P51449 other isoform, or with tags, fused parts or gaps): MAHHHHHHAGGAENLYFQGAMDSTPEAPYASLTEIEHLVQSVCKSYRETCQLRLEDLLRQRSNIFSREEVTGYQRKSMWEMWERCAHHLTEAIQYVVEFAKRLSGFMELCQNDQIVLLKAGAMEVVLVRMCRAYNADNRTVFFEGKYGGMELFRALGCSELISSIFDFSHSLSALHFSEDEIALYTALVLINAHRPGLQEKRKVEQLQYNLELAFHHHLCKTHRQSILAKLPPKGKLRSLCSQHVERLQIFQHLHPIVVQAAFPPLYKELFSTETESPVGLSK

Row | SMILES | Kd [1, 2] [µM] | RORγt (FL) Reporter Assay B or C, % inhibition (value marked *) (full-length human RORγt; Conditions B or C) | IC50 (full-length human RORγt; [3]) [µM] | also measured
1 | C[C@H](Nc1cc(C(F)F)c(-c2sc(C(=O)N[C@H]3C[C@H](O)C3)nc2C(=O)N2CC(F)(F)C[C@@H]2C)cn1)C(F)(F)F [Example 191, 4-((S)-4,4-Difluoro-2-methylpyrrolidine-1-carbonyl)-5-(4-(difluoromethyl)-6-(((S)-1,1,1-trifluoropropan-2-yl)amino)pyridine-3-yl)-N-((1r,3S)-3-hydroxycyclobutyl)thiazole-2-carboxamide] | 0.018 | 98* % | 0.032 | 
2 | C[C@H]1CCCN1C(=O)c1nc(C(=O)NCC(C)(C)O)sc1-c1cnc(NCC2(C(F)(F)F)CC2)cc1C(F)F [Example 276, 5-[4-(Difluoromethyl)-6-[[1-(trifluoromethyl)cyclopropyl]methylamino]-3-pyridyl]-N-(2-hydroxy-2-methyl-propyl)-4-[(2S)-2-methylpyrrolidine-1-carbonyl]thiazole-2-carboxamide] | 0.0061 |  |  | inhibition at 1 µM (full-length human RORγt; at 1 μM compound concentration, read-out: RORγt (FL) Reporter Assay B or C, % inhibition): 118%; IC50 (full-length human RORγt; [4]): 0.016 µM
3 | CC[C@H](Nc1cc(C(F)(F)F)c(-c2sc(C(=O)NCC(C)(C)O)nc2C(=O)N2CC(F)(F)C[C@@H]2C)cn1)C(F)(F)F [Example 102, 4-((S)-4,4-Difluoro-2-methylpyrrolidine-1-carbonyl)-N-(2-hydroxy-2-methylpropyl)-5-(6-(((S)-1,1,1-trifluorobutan-2-yl)amino)-4-(trifluoromethyl)pyridin-3-yl)thiazole-2-carboxamide] | 0.00099 | 116* % | 0.017 | 
4 | C[C@H]1CCCN1C(=O)c1nc(C(=O)NCCC(C)(C)O)sc1-c1cnc(NC(C)(C)C)cc1C(F)(F)F [Example 338, 5-[6-(tert-Butylamino)-4-(trifluoromethyl)-3-pyridyl]-N-(3-hydroxy-3-methyl-butyl)-4-[(2S)-2-methylpyrrolidine-1-carbonyl]thiazole-2-carboxamide] | 0.0039 |  |  | inhibition at 3 µM (full-length human RORγt; [5]): 107%; IC50 (full-length human RORγt; [4]): 0.0077 µM
5 | CC[C@H](Nc1cc(C(F)F)c(-c2sc(C(=O)N[C@@H](C)C(C)(C)O)nc2C(=O)N2CCCC[C@@H]2C)cn1)C(F)(F)F [Example 247, 5-[4-(Difluoromethyl)-6-[[(1S)-1-(trifluoromethyl)propyl]amino]-3-pyridyl]-N-[(1S)-2-hydroxy-1,2-dimethyl-propyl]-4-[(2S)-2-methylpiperidine-1-carbonyl]thiazole-2-carboxamide] | 0.00028 | 100* % | 0.023 | 
6 | C[C@H](O)[C@@H](C)NC(=O)c1nc(C(=O)N2CCC[C@@H]2C)c(-c2cnc(NC(C)(C)C)cc2C(F)(F)F)s1 (relative stereo) [Example 235, 5-(6-(tert-Butylamino)-4-(trifluoromethyl)pyridin-3-yl)-N-((2R*,3S*)-3-hydroxybutan-2-yl)-4-((S)-2-methylpyrrolidine-1-carbonyl)thiazole-2-carboxamide] | 0.0012 | 106* % | 0.034 | 
7 | CCC(C)(C)Nc1cc(C(F)F)c(-c2sc(C(=O)NCC(C)(C)O)nc2C(=O)N2CCC[C@@H]2C)cn1 [Example 96, (S)-5-(4-(Difluoromethyl)-6-(tert-pentylamino)pyridin-3-yl)-N-(2-hydroxy-2-methylpropyl)-4-(2-methylpyrrolidine-1-carbonyl)thiazole-2-carboxamide] | 0.0012 | 119* % | 0.037 | 
8 | C[C@H](Nc1cc(C(F)F)c(-c2sc(C(=O)N[C@@H]3COC[C@H]3O)nc2C(=O)N2CCC[C@@H]2C)cn1)C(F)(F)F [Example 215, 5-(4-(Difluoromethyl)-6-(((1S)-2,2,2-trifluoro-1-methyl-ethyl)amino)-3-pyridyl)-N-((3R,4S)-4-hydroxytetrahydrofuran-3-yl)-4-((2S)-2-methylpyrrolidine-1-carbonyl)thiazole-2-carboxamide] | 0.012 | 107* % | 0.1 | 
9 | O=C(N[C@H]1CC[C@H](O)C1)c1nc(C(=O)N2C3CCC2CC3)c(-c2cnc(N[C@@H](C3CC3)C(F)(F)F)cc2C(F)F)s1 [Example 441, 4-((1s,4s)-7-Azabicyclo[2.2.1]heptane-7-carbonyl)-5-[6-[[(1S)-1-cyclopropyl-2,2,2-trifluoro-ethyl]amino]-4-(difluoromethyl)-3-pyridyl]-N-[(1S,3S)-3-hydroxycyclopentyl]thiazole-2-carboxamide] | 0.00047 |  |  | IC50 (full-length human RORγt; RORγt (FL) Reporter Assay B or C, IC50): 0.036 µM; inhibition at 3 µM (full-length human RORγt; [5]): 106%
10 | C[C@H]1CCCN1C(=O)c1nc(C(=O)N[C@@H]2COC[C@H]2O)sc1-c1cnc(NC(C)(C)C)cc1C(F)F [Example 402, 5-[6-(tert-Butylamino)-4-(difluoromethyl)-3-pyridyl]-N-[(3R,4S)-4-hydroxytetrahydrofuran-3-yl]-4-[(2S)-2-methylpyrrolidine-1-carbonyl]thiazole-2-carboxamide] | 0.0058 |  |  | inhibition at 3 µM (full-length human RORγt; [5]): 99%; IC50 (full-length human RORγt; [4]): 0.037 µM
11 | CC(C)(O)CNC(=O)c1nc(C(=O)N2C3CCC2CC3)c(-c2cnc(NCC3(C(F)(F)F)CCC3)cc2C(F)(F)F)s1 [Example 119, 4-((1s,4s)-7-Azabicyclo[2.2.1]heptane-7-carbonyl)-N-(2-hydroxy-2-methylpropyl)-5-(4-(trifluoromethyl)-6-(((1-(trifluoromethyl)cyclobutyl)methyl)amino)pyridin-3-yl)thiazole-2-carboxamide] | 0.0015 | 108* % | 0.017 | 
12 | C[C@H](Nc1cc(C(F)F)c(-c2sc(C(=O)N[C@@H]3CCC[C@H]3O)nc2C(=O)N2C3CCC2CC3)cn1)C(F)(F)F [Example 224, 4-((1s,4s)-7-Azabicyclo[2.2.1]heptane-7-carbonyl)-5-(4-(difluoromethyl)-6-(((1S)-2,2,2-trifluoro-1-methyl-ethyl)amino)-3-pyridyl)-N-((1R,2R)-2-hydroxycyclopentyl)thiazole-2-carboxamide] | 0.0027 | 112* % |  | IC50 (full-length human RORγt; [6]): 0.026 µM
13 | CC[C@H](Nc1cc(C(F)(F)F)c(-c2sc(C(=O)N[C@H]3COC[C@@H]3O)nc2C(=O)N2C3CCC2CC3)cn1)C(F)(F)F [Example 156] | 0.001 | 102* % |  | IC50 (full-length human RORγt; [6]): 0.044 µM
14 | CC[C@H](Nc1cc(C(F)F)c(-c2sc(C(=O)NC3CCC3O)nc2C(=O)N2CCC[C@@H]2C)cn1)C(F)(F)F (stereo partly drawn) [Example 375, 5-(4-(Difluoromethyl)-6-(((S)-1,1,1-trifluorobutan-2-yl)amino)pyridin-3-yl)-N-(trans-2-hydroxycyclobutyl)-4-((S)-2-methylpyrrolidine-1-carbonyl)thiazole-2-carboxamide] | 0.0057 |  |  | inhibition at 3 µM (full-length human RORγt; [5]): 105%; IC50 (full-length human RORγt; [4]): 0.029 µM
15 | C[C@H]1CCCN1C(=O)c1nc(C(=O)NCC(C)(C)O)sc1-c1cnc(NCC2(C(F)(F)F)CCC2)cc1C(F)(F)F [Example 117, (S)—N-(2-Hydroxy-2-methylpropyl)-4-(2-methylpyrrolidine-1-carbonyl)-5-(4-(trifluoromethyl)-6-(((1-(trifluoromethyl)cyclobutyl)methyl)amino)pyridin-3-yl)thiazole-2-carboxamide] | 0.00078 | 107* % | 0.0033 | 
16 | C[C@H]1CCCN1C(=O)c1nc(C(=O)NCC(C)(C)O)sc1-c1cnc(NC2(C(F)(F)F)CCC2)cc1C(F)(F)F [Example 104, (S)—N-(2-Hydroxy-2-methylpropyl)-4-(2-methylpyrrolidine-1-carbonyl)-5-(4-(trifluoromethyl)-6-((1-(trifluoromethyl)cyclobutyl)amino)pyridin-3-yl)thiazole-2-carboxamide] | 0.00064 | 110* % | 0.025 | 
17 | CC[C@@H](Nc1cc(C(F)(F)F)c(-c2sc(C(=O)NCC(C)(C)O)nc2C(=O)N2C3CCC2CC3)cn1)C1CC1 (stereo in doubt) [Example 131] |  | 107* % |  | Kd ([1]; ThermoFluor® Assay, Kd (μM)): 0.0014 µM; IC50 (full-length human RORγt; [6]): 0.03 µM
18 | C[C@H](Nc1cc(C(F)F)c(-c2sc(C(=O)N[C@@H]3COC[C@@H]3O)nc2C(=O)N2CCC[C@@H]2C)cn1)C(F)(F)F (single isomer, unassigned) [Example 159, 5-(4-(Difluoromethyl)-6-(((S)-1,1,1-trifluoropropan-2-yl)amino)pyridin-3-yl)-N-((3R*,4R*)-4-hydroxytetrahydrofuran-3-yl)-4-((S)-2-methylpyrrolidine-1-carbonyl)thiazole-2-carboxamide] | 0.022 |  | 0.032 | RORγt (FL) Reporter Assay B or C, % inhibition (value marked ***) (full-length human RORγt; Conditions B or C, marked ***: footnote not given): 93*** %
19 | C[C@H](NC(=O)c1nc(C(=O)N2CCC[C@@H]2C)c(-c2cnc(NC(C)(C)C)cc2C(F)F)s1)C(C)(C)O [Example 270, 5-[6-(tert-Butylamino)-4-(difluoromethyl)-3-pyridyl]-N-[(1S)-2-hydroxy-1,2-dimethyl-propyl]-4-[(2S)-2-methylpyrrolidine-1-carbonyl]thiazole-2-carboxamide] | 0.0035 |  |  | inhibition at 3 µM (full-length human RORγt; [5]): 102%; IC50 (full-length human RORγt; [4]): 0.0051 µM
